SMILES strings stand for the structures.

Among the data in patent publication US4562202A, “N-Acyl hexahydroindole-2-carboxylic acids and anti-hypertensive use thereof” (Hoechst Aktiengesellschaft, priority 1982, dated 1985) are ED50 values, retold here.

The assay deals with pressor reaction induced by angiotensin I. Nature of the assay: Inhibition of the pressor reaction induced by 310 ng of angiotensin I, intraduodenal administration to the anaesthetized rat. Type of assay: in vivo. Conditions: 0.5 h, 310 ng angiotensin I, 30 min. after administration, read-out: ED50 (50% inhibition of the pressor reaction induced by 310 ng of angiotensin I 30 min. after administration). As for the experimental part: intraduodenal administration to the anaesthetized rat, 50% inhibition of the pressor reaction induced by 310 ng of angiotensin I 30 min. after administration in the dose . . . =ED50 : […]
Turning to `CCOC(=O)[C@H](CCc1ccccc1)N[C@@H](C)C(=O)N1[C@@H]2C=CCC[C@@H]2C[C@H]1C(=O)O` [N-(1S-carboethoxy-3-phenylpropyl)-S-alanyl-cis-2,3,3a,4,5,7a-hexahydro[1H]indole-2S-exo-carboxylic acid], the ED50 turned out to be 0.07 mg/kg.
As for `C[C@H](N[C@@H](CCc1ccccc1)C(=O)O)C(=O)N1[C@@H]2C=CCC[C@@H]2C[C@H]1C(=O)O` [N-(1S-carboxy-3-phenylpropyl)-S-alanyl-cis-2,3,3a,4,5,7a-hexahydro[1H]indole-2S-exo-carboxylic acid], the figure is 0.7 mg/kg; as for `CCOC(=O)[C@H](CCc1ccccc1)N[C@@H](C)C(=O)N1[C@H](C(=O)O)C[C@@H]2CCC=C[C@@H]21` [N-(1S-carboethoxy-3-phenylpropyl)-S-alanyl-cis-2,3,3a,4,5,7a-hexahydro [1H]indole-2S-endo-carboxylic acid], 0.04 mg/kg; as for `C[C@H](N[C@@H](CCc1ccccc1)C(=O)O)C(=O)N1[C@H](C(=O)O)C[C@@H]2CCC=C[C@@H]21` [N-(1S-carboxy-3-phenylpropyl)-S-alanyl-cis-2,3,3a,4,5,7a-hexahydro[1H]indole-2S-endo-carboxylic acid], 0.6 mg/kg.
In the case of `CCOC(=O)[C@H](CCc1ccccc1)N[C@@H](C)C(=O)N1C(C(=O)O)CC2CCC=CC21` (stereo partly drawn) [N-(1S-carboethoxy-3-phenylpropyl)-S-alanyl-cis-2,3,3a,4,5,7a-hexahydro[1H]indole-2R,S-endo-carboxylic acid], the ED50 turned out to be 0.08 mg/kg.
As for `CCOC(=O)[C@H](CC(=O)c1ccccc1)N[C@@H](C)C(=O)N1[C@H](C(=O)O)C[C@@H]2CCC=C[C@@H]21` [N-(1S-carboethoxy-3-oxo-3-phenylpropyl)-S-alanyl-cis-2,3,3a,4,5,7a-hexahydro[1H]indole-2S-endocarboxylic acid], the figure is 0.39 mg/kg; as for `CCOC(=O)[C@H](CC(=O)c1ccccc1)N[C@@H](C)C(=O)N1[C@@H]2C=CCC[C@@H]2C[C@H]1C(=O)O` [N-(1S-carboethoxy-3-oxophenylpropyl)-S-alanyl-cis-2,3,3a,4,5,7a-hexahydro[1H]indole-2S-exocarboxylic acid], 0.5 mg/kg.
